{"source": "patent US8106055B2", "about": "“Substituted amide compounds” (Gruenenthal GmbH, priority 2007, dated 2012)", "key": {"[1]": {"biological_target": "T1, human bradykinin 1 receptor (B1R) (Homo sapiens, UniProt P46663)", "T1 construct": "expressed in transfected cells; host or cells: CHO K1 cells", "T1 sequence (P46663 1-353)": "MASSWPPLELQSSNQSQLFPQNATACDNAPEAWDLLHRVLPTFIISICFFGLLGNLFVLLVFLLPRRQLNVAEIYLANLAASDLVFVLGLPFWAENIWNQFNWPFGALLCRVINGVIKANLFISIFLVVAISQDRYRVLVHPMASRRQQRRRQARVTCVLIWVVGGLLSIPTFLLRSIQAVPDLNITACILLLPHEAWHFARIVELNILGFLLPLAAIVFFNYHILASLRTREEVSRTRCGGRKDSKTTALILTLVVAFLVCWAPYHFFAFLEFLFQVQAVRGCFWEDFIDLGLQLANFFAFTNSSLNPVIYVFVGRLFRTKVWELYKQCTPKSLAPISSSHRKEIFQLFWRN", "test": "Functional investigation on the human bradykinin 1 receptor (B1R), Ca2+ FLIPR assay in CHO K1 hB1R cells", "format": "cell-based", "conditions": "CHO-K1, B1R antagonism human; test substance 10 μM; Ca2+ FLIPR, CHO K1 hB1R cells; read-out: B1R Ant. h [10 μM] % Inhibition", "outline": "(§1)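 Stably transfected CHO K1 cells loaded with Fluo-4; FLIPR Ca2+ fluorescence peak (ex 488/em 540 nm). Compound added first (agonism vs Lys-Des-Arg9-bradykinin ≥50 nM human, Des-Arg9-bradykinin 10 μM rat), then after 10-20 min agonist at EC80; antagonism as % inhibition, IC50 from concentration series, n=2-3, N≥2.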"}, "[2]": {"biological_target": "T2, bradykinin 1 receptor (B1R) of the rat (Rattus norvegicus, UniProt P97583)", "T2 construct": "expressed in transfected cells; host or cells: CHO K1 cells", "T2 sequence (P97583 1-337)": "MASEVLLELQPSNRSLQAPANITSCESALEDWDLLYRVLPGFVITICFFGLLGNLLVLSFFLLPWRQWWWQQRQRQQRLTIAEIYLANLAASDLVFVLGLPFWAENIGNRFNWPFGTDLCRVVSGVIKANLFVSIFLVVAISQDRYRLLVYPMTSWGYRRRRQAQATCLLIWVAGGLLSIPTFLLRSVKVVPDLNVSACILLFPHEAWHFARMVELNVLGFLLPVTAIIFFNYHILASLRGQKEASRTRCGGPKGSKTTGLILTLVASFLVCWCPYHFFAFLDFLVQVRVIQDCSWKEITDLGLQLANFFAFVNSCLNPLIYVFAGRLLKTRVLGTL", "test": "Functional investigation on the rat bradykinin 1 receptor (B1R), Ca2+ FLIPR assay in CHO K1 rB1R cells", "format": "cell-based", "conditions": "CHO-K1, B1R antagonism rat; test substance 10 μM; Ca2+ FLIPR, CHO K1 rB1R cells; read-out: B1R Ant. r [10 μM] % Inhibition", "outline": "as §1"}}, "data": [{"smiles": "CN(C)C(c1cccs1)C1CCC(CCNC(=O)COC2CCN(S(=O)(=O)c3ccc(Cl)cc3Cl)C2)CC1", "note": "(centres unmarked) [Example 21, 2-(1-(2,4-dichlorophenylsulfonyl)pyrrolidin-3-yloxy)-N-(2-(4-((dimethylamino)(thiophen-2-yl)methyl)cyclohexyl)ethyl)acetamide]", "values": [{"measurement": "inhibition at 10 µM", "setting": "[1]", "value": 88, "unit": "%"}, {"measurement": "inhibition at 10 µM", "setting": "[2]", "value": 50, "unit": "%"}]}, {"smiles": "COc1cc(C)c(S(=O)(=O)N2CCC(CCOCC(=O)NC3CCC(C(c4ccc(F)cc4)N(C)C)CC3)CC2)c(C)c1C", "note": "(centres unmarked) [Example 178, N-(4-((dimethylamino)(4-fluorophenyl)methyl)cyclohexyl)-2-(2-(1-(4-methoxy-2,3,6-trimethylphenylsulfonyl)piperidin-4-yl)ethoxy)acetamide]", "values": [{"measurement": "inhibition at 10 µM", "setting": "[1]", "value": 24, "unit": "%"}, {"measurement": "inhibition at 10 µM", "setting": "[2]", "value": 12, "unit": "%"}]}, {"smiles": "COc1cc(C)c(S(=O)(=O)N2CCCC(OCC(=O)NCC3CCC(C(c4ccccc4)N(C)C)CC3)C2)c(C)c1C", "note": "(centres unmarked) [Example 29, N-((4-((dimethylamino)(phenyl)methyl)cyclohexyl)methyl)-2-(1-(4-methoxy-2,3,6-trimethylphenylsulfonyl)piperidin-3-yloxy)acetamide]", "values": [{"measurement": "inhibition at 10 µM", "setting": "[1]", "value": 35, "unit": "%"}, {"measurement": "inhibition at 10 µM", "setting": "[2]", "value": 17, "unit": "%"}]}, {"smiles": "CN(C)C(c1cccc(F)c1)C1CCC(NC(=O)COC2CCN(S(=O)(=O)c3ccc(F)cc3)C2)CC1", "note": "(centres unmarked) [Example 172, N-(4-((dimethylamino)(3-fluorophenyl)methyl)cyclohexyl)-2-(1-(4-fluorophenylsulfonyl)pyrrolidin-3-yloxy)acetamide]", "values": [{"measurement": "inhibition at 10 µM", "setting": "[1]", "value": -12, "unit": "%"}, {"measurement": "inhibition at 10 µM", "setting": "[2]", "value": 18, "unit": "%"}]}, {"smiles": "CN(C)C(c1cccc(F)c1)C1CCC(CCNC(=O)COCCN(C)S(=O)(=O)c2c(Cl)cc(Cl)cc2Cl)CC1", "note": "(centres unmarked) [Example 174, N-(2-(4-((dimethylamino)(3-fluorophenyl)methyl)cyclohexyl)ethyl)-2-(2-(2,4,6-trichloro-N-methylphenylsulfonamido)ethoxy)acetamide]", "values": [{"measurement": "inhibition at 10 µM", "setting": "[1]", "value": 103, "unit": "%"}, {"measurement": "inhibition at 10 µM", "setting": "[2]", "value": 44, "unit": "%"}]}, {"smiles": "CN(C)C(c1cccs1)C1CCC(NC(=O)COCCN(C)S(=O)(=O)c2ccc(F)cc2)CC1", "note": "(centres unmarked) [Example 10, N-(4-((dimethylamino)(thiophen-2-yl)methyl)cyclohexyl)-2-(2-(4-fluoro-N-methylphenylsulfonamido)ethoxy)acetamide]", "values": [{"measurement": "inhibition at 10 µM", "setting": "[1]", "value": -17, "unit": "%"}, {"measurement": "inhibition at 10 µM", "setting": "[2]", "value": 9, "unit": "%"}]}, {"smiles": "CN(C)C(c1cccc(F)c1)C1CCC(CNC(=O)COCCN(C)S(=O)(=O)c2ccc(Cl)cc2)CC1", "note": "(centres unmarked) [Example 158, 2-(2-(4-chloro-N-methylphenylsulfonamido)ethoxy)-N-((4-((dimethylamino)(3-fluorophenyl)methyl)cyclohexyl)methyl)acetamide]", "values": [{"measurement": "inhibition at 10 µM", "setting": "[1]", "value": 20, "unit": "%"}, {"measurement": "inhibition at 10 µM", "setting": "[2]", "value": 5, "unit": "%"}]}, {"smiles": "COc1cc(C)c(S(=O)(=O)N2CCC(CCOCC(=O)NCC3CCC(C(c4ccccc4)N(C)C)CC3)CC2)c(C)c1C", "note": "(centres unmarked) [Example 146, N-((4-((dimethylamino)(phenyl)methyl)cyclohexyl)methyl)-2-(2-(1-(4-methoxy-2,3,6-trimethylphenylsulfonyl)piperidin-4-yl)ethoxy)acetamide]", "values": [{"measurement": "inhibition at 10 µM", "setting": "[1]", "value": 23, "unit": "%"}, {"measurement": "inhibition at 10 µM", "setting": "[2]", "value": 26, "unit": "%"}]}, {"smiles": "CN(C)C(c1cccc(F)c1)C1CCC(CNC(=O)COC2CCN(S(=O)(=O)c3cccc(C(F)(F)F)c3)C2)CC1", "note": "(centres unmarked) [Example 170, N-((4-((dimethylamino)(3-fluorophenyl)methyl)cyclohexyl)methyl)-2-(1-(3-(trifluoromethyl)phenylsulfonyl)pyrrolidin-3-yloxy)acetamide]", "values": [{"measurement": "inhibition at 10 µM", "setting": "[1]", "value": 8, "unit": "%"}, {"measurement": "inhibition at 10 µM", "setting": "[2]", "value": 38, "unit": "%"}]}, {"smiles": "CN(C)C(c1ccccc1)C1CCC(CNC(=O)COCCN(C)S(=O)(=O)c2c(Cl)cc(Cl)cc2Cl)CC1", "note": "(centres unmarked) [Example 14, N-((4-((dimethylamino)(phenyl)methyl)cyclohexyl)methyl)-2-(2-(2,4,6-trichloro-N-methylphenylsulfonamido)ethoxy)acetamide]", "values": [{"measurement": "inhibition at 10 µM", "setting": "[1]", "value": 104, "unit": "%"}, {"measurement": "inhibition at 10 µM", "setting": "[2]", "value": 40, "unit": "%"}]}, {"smiles": "COc1ccc(S(=O)(=O)N2CCCCC2COCC(=O)NCCC2CCC(C(c3cccs3)N(C)C)CC2)cc1", "note": "(centres unmarked) [Example 30, N-(2-(4-((dimethylamino)(thiophen-2-yl)methyl)cyclohexyl)ethyl)-2-((1-(4-methoxyphenylsulfonyl)piperidin-2-yl)methoxy)acetamide]", "values": [{"measurement": "inhibition at 10 µM", "setting": "[1]", "value": 81, "unit": "%"}, {"measurement": "inhibition at 10 µM", "setting": "[2]", "value": 72, "unit": "%"}]}, {"smiles": "CN(C)C(c1cccc(F)c1)C1CCC(CNC(=O)COCCN(C)S(=O)(=O)c2c(Cl)cc(Cl)cc2Cl)CC1", "note": "(centres unmarked) [Example 188, N-((4-((dimethylamino)(3-fluorophenyl)methyl)cyclohexyl)methyl)-2-(2-(2,4,6-trichloro-N-methylphenylsulfonamido)ethoxy)acetamide]", "values": [{"measurement": "inhibition at 10 µM", "setting": "[1]", "value": 102, "unit": "%"}, {"measurement": "inhibition at 10 µM", "setting": "[2]", "value": 13, "unit": "%"}]}, {"smiles": "COc1cc(C)c(S(=O)(=O)N2CCC(OCC(=O)NCCC3CCC(C(c4cccs4)N(C)C)CC3)CC2)c(C)c1C", "note": "(centres unmarked) [Example 177, N-(2-(4-((dimethylamino)(thiophen-2-yl)methyl)cyclohexyl)ethyl)-2-(1-(4-methoxy-2,3,6-trimethylphenylsulfonyl)piperidin-4-yloxy)acetamide]", "values": [{"measurement": "inhibition at 10 µM", "setting": "[1]", "value": 10, "unit": "%"}, {"measurement": "inhibition at 10 µM", "setting": "[2]", "value": 45, "unit": "%"}]}, {"smiles": "COc1cc(C)c(S(=O)(=O)N2CCCC(OCC(=O)NC3CCC(C(c4cccs4)N(C)C)CC3)C2)c(C)c1C", "note": "(centres unmarked) [Example 144, N-(4-((dimethylamino)(thiophen-2-yl)methyl)cyclohexyl)-2-(1-(4-methoxy-2,3,6-trimethylphenylsulfonyl)piperidin-3-yloxy)acetamide]", "values": [{"measurement": "inhibition at 10 µM", "setting": "[1]", "value": 20, "unit": "%"}, {"measurement": "inhibition at 10 µM", "setting": "[2]", "value": 4, "unit": "%"}]}, {"smiles": "CCN(CCOCC(=O)NC1CCC(C(c2cccc(F)c2)N(C)C)CC1)S(=O)(=O)c1c(C)cc(OC)c(C)c1C", "note": "(centres unmarked) [Example 176, N-(4-((dimethylamino)(3-fluorophenyl)methyl)cyclohexyl)-2-(2-(N-ethyl-4-methoxy-2,3,6-trimethylphenylsulfonamido)ethoxy)acetamide]", "values": [{"measurement": "inhibition at 10 µM", "setting": "[1]", "value": 64, "unit": "%"}, {"measurement": "inhibition at 10 µM", "setting": "[2]", "value": 47, "unit": "%"}]}, {"smiles": "COc1cc(C)c(S(=O)(=O)N(CCOCC(=O)NCC2CCC(C(c3ccccc3)N(C)C)CC2)Cc2ccccc2)c(C)c1", "note": "(centres unmarked) [Example 148, 2-(2-(N-benzyl-4-methoxy-2,6-dimethylphenylsulfonamido)ethoxy)-N-((4-((dimethylamino)(phenyl)methyl)cyclohexyl)methyl)acetamide]", "values": [{"measurement": "inhibition at 10 µM", "setting": "[1]", "value": 92, "unit": "%"}, {"measurement": "inhibition at 10 µM", "setting": "[2]", "value": 46, "unit": "%"}]}, {"smiles": "COc1cc(C)c(S(=O)(=O)N(C)CCOCC(=O)NCC2CCC(C(c3ccccc3)N(C)C)CC2)c(C)c1", "note": "(centres unmarked) [Example 137, N-((4-((dimethylamino)(phenyl)methyl)cyclohexyl)methyl)-2-(2-(4-methoxy-N,2,6-trimethylphenylsulfonamido)ethoxy)acetamide]", "values": [{"measurement": "inhibition at 10 µM", "setting": "[1]", "value": 102, "unit": "%"}, {"measurement": "inhibition at 10 µM", "setting": "[2]", "value": 100, "unit": "%"}]}, {"smiles": "COc1ccc(S(=O)(=O)N2CCCCC2COCC(=O)NCCC2CCC(C(c3cccc(F)c3)N(C)C)CC2)cc1", "note": "(centres unmarked) [Example 180, N-(2-(4-((dimethylamino)(3-fluorophenyl)methyl)cyclohexyl)ethyl)-2-((1-(4-methoxyphenylsulfonyl)piperidin-2-yl)methoxy)acetamide]", "values": [{"measurement": "inhibition at 10 µM", "setting": "[1]", "value": 62, "unit": "%"}, {"measurement": "inhibition at 10 µM", "setting": "[2]", "value": 68, "unit": "%"}]}, {"smiles": "CN(C)C(c1cccs1)C1CCC(CCNC(=O)COCCN(C)S(=O)(=O)c2ccc(Cl)cc2Cl)CC1", "note": "(centres unmarked) [Example 9, 2-(2-(2,4-dichloro-N-methylphenylsulfonamido)ethoxy)-N-(2-(4-((dimethylamino) (thiophen-2-yl)methyl)cyclohexyl)ethyl)acetamide]", "values": [{"measurement": "inhibition at 10 µM", "setting": "[1]", "value": 97, "unit": "%"}, {"measurement": "inhibition at 10 µM", "setting": "[2]", "value": 43, "unit": "%"}]}]}
